Source: patent US20240262842A1, “SMALL MOLECULE INHIBITORS OF KRAS G12C MUTANT” (Merck Sharp & Dohme LLC, priority 2021, published 2024)
Like-named read-outs stand apart in the source and are kept apart here.

What was measured:
[1] = target: T1, interaction between GMPPNP-bound recombinant K-Ras4B G12C mutant protein and cRAF RAS-binding domain (cRAF-RBD) (Homo sapiens, UniProt P01116, G12C); test: Inhibitory activity on interaction between KRAS G12C and cRAF (Alpha technology)
T1 construct: His-tag (N)
Outline: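 Alpha signal measured 1.5 h after adding cRAF-RBD (aa 50-132) and detection reagents to GMPPNP-bound KRAS G12C (aa 1-169) pretreated 1 h at 25° C with compound (pH 7.5 buffer). 0% inhibition = DMSO, 100% = GDP-loaded KRAS; IC50 by curve fit.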

[2] = test system: MIA PaCa-2 cells; test: Growth inhibition activity on KRAS-G12C mutant cell line (CellTiter-Glo 3D); format: cell-based, human; details: MIA PaCa-2, 3-day culture with compound
Outline: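 IC50 (nM) derived from inhibition of luminescence (CellTiter-Glo 3D) relative to compound-free wells. Cells were seeded in U-bottom plates, grown 1 day, then exposed to compound for 3 days at 37 °C with 0.2% final DMSO.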

[3] = IC50, GMPPNP-bound KRAS G12C incubated with compound 25° C. 1 hour, Table 2-1
[4] = Homo sapiens, MIA PaCa-2, 72 h, Table 3-1
[5] = GMPPNP-bound KRAS G12C incubated with compound 25° C. 1 hour, Table 2-1, read-out: IC50
[6] = IC50, GMPPNP-bound KRAS G12C incubated with compound 25° C. 1 hour, Table 2
[7] = Homo sapiens, MIA PaCa-2, 72 h, Table 3
[8] = GMPPNP-bound KRAS G12C incubated with compound 25° C. 1 hour, Table 2, read-out: IC50

T1 sequence (P01116 with tags, fused parts or gaps isoform P01116-2 G12C): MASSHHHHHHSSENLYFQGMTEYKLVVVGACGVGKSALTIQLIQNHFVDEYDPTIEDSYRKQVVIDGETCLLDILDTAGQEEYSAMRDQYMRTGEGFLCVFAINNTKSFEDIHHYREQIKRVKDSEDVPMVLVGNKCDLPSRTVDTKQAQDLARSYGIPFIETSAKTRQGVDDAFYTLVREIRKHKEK

SMILES	IC50 [2, 4] [nM]	IC50 [1, 5] [nM]	further results
Cc1cc2c(nc(C)n2C)c2c1-c1cccc3c(C(=O)c4cc(F)c(NC(=O)/C=C/CNC5COC(C)(C)C5)c(F)c4)cn(c13)CCN2C (stereo not drawn) [Example 124, (E)-N-(2,6-difluoro-4-(6,8,9,11-tetramethyl-8,11,12,13-tetrahydro-imidazo[4″,5″:5′,6′]benzo-[1′,2′:5,6][1,4]diazocino-[7,8,1-hi]indole-2-carbon-yl)phenyl)-4-((5,5-dimeth-yltetrabydrofuran-3-yl)-amino)but-2-enamide]	13.7	–	IC50 [1, 3]: 13 nM
CN1CCn2cc(C(=O)c3cc(F)c(NC(=O)/C=C/CNC4(C)COC4)c(F)c3)c3cccc(c32)-c2c(C(F)(F)F)cc3c(ncn3C)c21 [Example 61, (E)-N-(4-(8,11-dimethyl-6-(trifluoromethyl)-8,11,12,13-tetrahydro-imidazo[4″,5″:5′,6′]benzo-[1′,2′:5,6][1,4]diazocino-[7,8,1-hi]indole-2-carbon-yl)-2,6-difluorophenyl)-4-((3-methyloxetan-3-yl)-amino)but-2-enamide]	16.3	–	IC50 [1, 3]: 76.3 nM
Cc1cc2c(nc(C)n2C)c2c1-c1cccc3c(C(=O)c4cc(F)c(NC(=O)/C=C/CN5CCC[C@H]5C(C)(C)O)c(F)c4)cn(c13)CCN2C [Example 122, (S,E)-N-(2,6-difluoro-4-(6,8,9,11-tetramethyl-8,11,12,13-tetrahydro-imidazo[4″,5″:5′,6′]benzo-[1′,2′:5,6][1,4]diazocino-[7,8,1-hi]indole-2-carbon-yl)phenyl)-4-(2-(2-hydroxypropan-2-yl)-pyrrolidin-1-yl)but-2-enamide]	88.2	–	IC50 [1, 3]: 54.1 nM
Cn1cnc2c3c(c(C(F)(F)F)cc21)-c1cccn2c(C(=O)c4cc(F)c(NC(=O)/C=C/CN5CC[C@H]5C(C)(C)O)c(F)c4)cc(c12)CCO3 [Example 162, (S,E)-N-(2,6-difluoro-4-(9-methyl-7-(trifluoro-methyl)-13,14-dihydro-9H-imidazo[4″,5″:5′,6′]-benzo[1′,2′:2,3]oxocino-[4,5,6-hi]indolizine-2-carbonyl)phenyl)-4-(2-(2-hydroxypropan-2-yl)-azetidin-1-yl)but-2-enamide]	15.2	22.4	–
CN1CCc2cc(C(=O)c3cc(F)c(NC(=O)/C=C/CNC4(CO)CCCC4)c(F)c3)n3cccc(c23)-c2c(C(F)(F)F)cc3c(ncn3C)c21 [Example 109, (E)-N-(4-(9,12-dimethyl-7-(trifluoromethyl)-9,12,13,14-tetrahydro-imidazo[4″,5″:5′,6′]benzo-[1′,2′:2,3]azocino[4,5,6-hi]indolizine-2-carbonyl)-2,6-difluorophenyl)-4-((1-(hydroxymethyl)cyclo-pentyl)amino)but-2-enamide]	19.5	24.8	–
CC(=O)NC[C@@H]1CCN1C/C=C/C(=O)Nc1c(F)cc(C(=O)c2cc3c4c(cccn24)-c2c(C(F)(F)F)cc4c(ncn4C)c2OCC3)cc1F [Example 192, (S,E)-4-(2-(acetamido-methyl)azetidin-1-yl)-N-(2,6-difluoro-4-(9-meth-yl-7-(trifluoromethyl)-13,14-dihydro-9H-imidazo[4″,5″:5′,6′]benzo-[1′,2′:2,3]oxocino[4,5,6-hi]indolizine-2-carbonyl)-phenyl)but-2-enamide]	24.3	91.5	–
COc1cccc2c1-c1cccc3c(C(=O)c4cc(F)c(NC(=O)/C=C/CN[C@H]5CC[C@H](OC)CC5)c(F)c4)cn(c13)CCO2 [Example 10, (E)-N-(2,6-difluoro-4-(10-methoxy-4,5-dihydrobenzo[7,8][1,4]oxazocino[6,5,4-hi]indole-1-carbonyl)phenyl)-4-(((1,4r)-4-methoxycyclohexyl)amino)but-2-enamide]	–	–	IC50 [1, 6]: 150 nM; IC50 [2, 7]: 230 nM
Cc1cc2c(nc(C)n2C)c2c1-c1cccc3c(C(=O)c4cc(F)c(NC(=O)/C=C/CNC5CCOC5(C)C)c(F)c4)cn(c13)CCN2C (stereo not drawn) [Example 123, (E)-N-(2,6-difluoro-4-(6,8,9,11-tetramethyl-8,11,12,13-tetrahydro-imidazo[4″,5″:5′,6′]benzo-[1′,2′:5,6][1,4]diazocino-[7,8,1-hi]indole-2-carbon-yl)phenyl)-4-((2,2-dimeth-yltetrahydrofuran-3-yl)-amino)but-2-enamide]	35	–	IC50 [1, 3]: 41.8 nM
Cc1nc2c3c(c(C(F)(F)F)cc2n1C)-c1cccn2c(C(=O)c4cc(F)c(NC(=O)/C=C/CNC5(C(=O)O)CCCCC5)c(F)c4)cc(c12)CCO3 [Example 40]	–	–	IC50 [1, 8]: 4700 nM; IC50 [2, 7]: 1600 nM
CO[C@H]1CC[C@H](NC/C=C/C(=O)Nc2c(F)cc(C(=O)c3cn4c5c(cccc35)-c3c(C)cc5c(nc(C)n5C)c3N(C(C)=O)CC4)cc2F)CC1 [Example 72, (E)-N-(4-(11-acetyl-6,8,9-trimethyl-8,11,12,13-tetra-hydroimidazo[4″,5″: 5′,6′]benzo[1′,2′:2,3][1,4]-diazocino[7,8,1-hi]indole-2-carbonyl)-2,6-difluoro-phenyl)-4-(((1r,4r)-4-methoxycyclohexyl)-amino)but-2-enamide]	1170	–	IC50 [1, 3]: 97.8 nM
Cc1nc2c3c(c(C(F)(F)F)cc2n1C)-c1cccn2c(C(=O)c4cc(F)c(NC(=O)/C=C/CNC5(C)COC5)c(F)c4)cc(c12)CCO3 (single isomer, unassigned) [Example 31-1, (E)-N-(4-(9,10-dimethyl-7-(trifluoromethyl)-13,14-dihydro-9H-imidazo[4″,5″:5′,6′]benzo[1′,2′:2,3]oxocino[4,5,6-hi]indolizine-2-carbonyl)-2,6-difluorophenyl)-4-((3-methyloxetan-3-yl)amino)but-2-enamide]	–	–	IC50 [1, 8]: 11 nM; IC50 ([2]; Table 3): 7 nM
Cn1cnc2c3c(c(C(F)(F)F)cc21)-c1cccn2c(C(=O)c4cc(F)c(NC(=O)/C=C/CNC56CCC(CC5)OC6)c(F)c4)cc(c12)CCO3 [Example 125]	9.06	3.75	–
CC(C)(C)NC/C=C/C(=O)Nc1c(F)cc(C(=O)c2cn3c4c(cccc24)-c2c(Cl)cccc2OCCC3)cc1F (single isomer, unassigned) [Example 2-2, (E)-4-(tert-butylamino)-N-(4-(11-chloro-5,6-dihydro-4H-benzo[8,9][1,5]oxazonino[7,6,5-hi]indole-1-carbonyl)-2,6-difluorophenyl)but-2-enamide]	–	–	IC50 [1, 6]: 500 nM; IC50 ([2]; Table 3): 390 nM
Cc1nc2c3c(c(C(F)(F)F)cc2n1C)-c1cccn2c(C(=O)c4cc(F)c(NC(=O)/C=C/CN(C)C)c(F)c4)cc(c12)CCO3 (single isomer, unassigned) [Example 38-1]	–	–	IC50 [1, 8]: > 6700 nM; IC50 ([2]; Table 3): 8300 nM
Cc1cc2c(ncn2C)c2c1-c1cccn3c(C(=O)c4cc(F)c(NC(=O)/C=C/CNC56CCC(CC5)OC6)c(F)c4)cc(c13)CCN2C [Example 134]	244	31	–
COc1cc2c(nc(C)n2C)c2c1-c1cccn3c(C(=O)c4cc(F)c(NC(=O)/C=C/CNC5(C)COC5)c(F)c4)cc(c13)CCN2C (single isomer, unassigned) [Example 141, (E)-N-(2,6-difluoro-4-(7-methoxy-9,10,12-trimethyl-9,12,13,14-tetrahydroimidazo[4″,5″: 5′,6′]benzo[1′,2′:2,3]-azocino[4,5,6-hi]indol-izine-2-carbonyl)phenyl)-4-((3-methyloxetan-3-yl)-amino)but-2-enamide]	34.3	9.71	–
Cn1cnc2c3c(c(C(F)(F)F)cc21)-c1cccn2c(C(=O)c4cc(F)c(NC(=O)/C=C/CN5CC[C@H]6CC[C@H](O)[C@H]65)c(F)c4)cc(c12)CCO3 (racemic) [Example 163]	42.7	33.5	–
Cc1nc2c3c(c(C(F)(F)F)cc2n1C)-c1cccn2c(C(=O)c4cc(F)c(NC(=O)/C=C/CNC5(C)CCOCC5)c(F)c4)cc(c12)CCO3 [Example 39]	–	–	IC50 [1, 8]: 8 nM; IC50 [2, 7]: 12 nM
CO[C@H]1CC[C@H](NC/C=C/C(=O)Nc2c(F)cc(C(=O)c3cn4c5c(cccc35)-c3c(Cl)cc(N5CCCC5=O)cc3OCC4)cc2F)CC1 [Example 8, (E)-N-(4-(10-chloro-8-(2-oxopyrrolidin-1-yl)-4,5-dihydrobenzo[7,8][1,4]oxazocino[6,5,4-hi]indole-1-carbonyl)-2,6-difluorophenyl)-4-(((1r,4t)-4-methoxycyclohexyl)amino)but-2-enamide]	–	–	IC50 [1, 6]: 150 nM; IC50 [2, 7]: 160 nM
COc1cc2c(nc(C)n2C)c2c1-c1cccn3c(C(=O)c4cc(F)c(NC(=O)/C=C/CN[C@H]5CC[C@H](OC)CC5)c(F)c4)cc(c13)CCN2C [Example 78, (E)-N-(2,6-difluoro-4-(7-methoxy-9,10,12-tri-methyl-9,12,13,14-tetra-hydroimidazo[4″,5″:5′,6′]-benzo[1′,2′:2,3]azocino-[4,5,6-hi]indolizine-2-carbonyl)phenyl)-4-(((1r,4r)-4-methoxycyclo-hexyl)amino)but-2-en-amide]	6.92	33.7	–
CCNC/C=C/C(=O)Nc1c(F)cc(C(=O)c2cc3c4c(cccn24)-c2c(C(F)(F)F)cc4c(ncn4C)c2N(C)CC3)cc1F [Example 111, (E)-N-(4-(9,12-dimethyl-7-(trifluoromethyl)-9,12,13,14-tetrahydro-imidazo[4″,5″:5′,6′]benzo-[1′,2′:2,3]azocino[4,5,6-hi]indolizine-2-carbonyl)-2,6-difluorophenyl)-4-(ethylamino)but-2-enamide]	8.95	31.3	–
